{
  "source": "patent US8431593B2",
  "about": "“Heteroaryl amide derivatives” (H. Lundbeck A/S, priority 2006, dated 2013)",
  "biological_target": "T1, P2X7 receptor (Homo sapiens, UniProt Q99572)",
  "T1 construct": "host or cells: SH-SY5Y",
  "T1 sequence (Q99572 1-595)": "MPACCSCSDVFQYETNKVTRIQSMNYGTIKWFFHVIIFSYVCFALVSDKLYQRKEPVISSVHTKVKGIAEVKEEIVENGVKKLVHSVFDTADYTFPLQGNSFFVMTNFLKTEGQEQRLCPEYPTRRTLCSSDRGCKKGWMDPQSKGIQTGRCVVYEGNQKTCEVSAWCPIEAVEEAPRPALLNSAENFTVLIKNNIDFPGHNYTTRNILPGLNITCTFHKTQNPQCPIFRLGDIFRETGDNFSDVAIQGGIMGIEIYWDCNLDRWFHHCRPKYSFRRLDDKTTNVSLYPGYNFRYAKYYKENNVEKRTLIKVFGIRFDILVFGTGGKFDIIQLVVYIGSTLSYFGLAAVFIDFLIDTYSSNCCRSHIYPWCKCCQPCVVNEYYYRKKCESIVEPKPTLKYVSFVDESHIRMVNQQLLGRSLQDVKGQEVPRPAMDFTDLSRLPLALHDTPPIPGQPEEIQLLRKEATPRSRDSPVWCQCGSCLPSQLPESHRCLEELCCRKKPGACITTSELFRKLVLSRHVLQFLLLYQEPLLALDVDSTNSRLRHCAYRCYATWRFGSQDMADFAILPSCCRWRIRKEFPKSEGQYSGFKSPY",
  "test": "P2X7 calcium mobilization assay, high throughput, antagonist activity (Example 4A)",
  "assay_type": "cell-based",
  "method_in_brief": "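Antagonism was measured as calcium fluorescence (FLIPR Tetra) in cells seeded one day earlier at 100,000/well, loaded with dye for 1 h and exposed to compound for 1 h at room temperature before agonist. Peak RFU, minus the no-agonist background, was referenced to the mean of the agonist wells.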",
  "key": {"[1]": {"settings": "SH-SY5Y cells, 50% decrease in fluorescence response to 80 μM BzATP, read-out: IC50"}, "[2]": {"settings": "50% decrease in the fluorescence response of cells exposed to 80 μM of 2′(3′)-O-(4-benzoyl-benzoyl)adenosine 5′-triphosphate, Example 4A, read-out: IC50"}, "[3]": {"settings": "P2X7 calcium mobilization, Example 4A, 50% decrease in the fluorescence response of cells exposed to 80 μM of (2′(3′)-O-(4-benzoyl-benzoyl)adenosine 5′-triphosephate), read-out: IC50"}, "[4]": {"settings": "50% decrease in the fluorescence response of cells exposed to 80 μM of 2′(3′)-O-(4-benzoyl-benzoyl)adenosine 5′-triphosphate, determined as in Example 4A, read-out: IC50"}, "[5]": {"settings": "50% decrease in the fluorescence response of cells exposed to 80 μM 2′(3′)-O-(4-benzoyl-benzoyl)adenosine 5′-triphosphate, Example 4A, read-out: IC50"}},
  "note": "Read-outs that look alike come from different tables or passages of the source.",
  "data": [
    {"smiles": "CCS(=O)(=O)NCCc1cn2c(C(=O)NCC34CC5CC(CC(C5)C3)C4)cccc2n1", "note": "[Compound 194, N-(adamantan-1-ylmethyl)-2-{2-[(ethylsulfonyl)amino]eth-yl}imidazo[1,2-a]pyridine-5-carboxamide]", "values": [
      {"measurement": "IC50", "setting": "[1]", "value": "< 2", "unit": "µM"}
    ]},
    {"smiles": "O=C(NCC12CC3CC(CC(C3)C1)C2)c1cccc2nc(CC(=O)N3CCC4(CC3)OCCO4)cn12", "note": "[Compound 187, N-(adamantan-1-ylmethyl)-2-[2-(1,4-dioxa-8-azaspiro[4.5]dec-8-yl)-2-oxoethyl]imidazo[1,2-a]pyridine-5-carboxamide]", "values": [
      {"measurement": "IC50", "value": "< 2", "unit": "µM"}
    ]},
    {"smiles": "N[C@@H]1CCN(C(=O)CCc2cn3c(C(=O)NCC45CC6CC(CC(C6)C4)C5)cccc3n2)C1", "note": "[Compound 778, N-(adamantan-1-ylmethyl)-2-{3-[(3R)-3-aminopyrrolidin-1-yl]-3-oxopropyl} imidazo[1,2-a] pyridine-5-carboxamide]", "values": [
      {"measurement": "IC50", "setting": "[2]", "value": "< 2", "unit": "µM"}
    ]},
    {"smiles": "CCCN(C)C(=O)Cc1cn2c(C(=O)NCC34CC5CC(CC(C5)C3)C4)cccc2n1", "note": "[Compound 186, N-(adamantan-1-ylmethyl)-2-{2-[methyl(propyl)amino]-2-oxoethyl}imidazo[1,2-a]pyridine-5-carboxamide]", "values": [
      {"measurement": "IC50", "setting": "[1]", "value": "< 2", "unit": "µM"}
    ]},
    {"smiles": "O=C(NCCN1CCCC1)c1cn2c(C(=O)NCC34CC5CC(CC(C5)C3)C4)cccc2n1", "note": "[Compound 646, 5-N-(adamantan-1-ylmethyl)-2-N-(2-pyrrolidin-1-ylethyl)imidazo[1,2-a]pyridine-2,5-dicarboxamide]", "values": [
      {"measurement": "IC50", "setting": "[2]", "value": "< 2", "unit": "µM"}
    ]},
    {"smiles": "CC(C)CC(CNC(=O)c1cccc2nc(CN3CC[C@@H](N(C)C)C3)cn12)c1ccc(Cl)cc1", "note": "(stereo partly drawn) [Compound 1039, N-[2-(4-chlorophenyl)-4-methylpentyl]-2-{[(3R)-3-(dimethylamino)pyrrolidin-1-yl]methyl} imidazo[1,2-a]pyridine-5-carboxamide]", "values": [
      {"measurement": "IC50", "setting": "[3]", "value": "< 2", "unit": "µM"}
    ]},
    {"smiles": "N[C@@H]1CCN(Cc2cn3c(C(=O)NCC4(c5ccc(Cl)cc5)CCCCC4)cccc3n2)C1", "note": "[Compound 821, 2-{[(3R)-3-aminopyrrolidin-1-yl]methyl}-N-{[1-(4-chlorophenyl)cyclohexyl]methyl} imidazo[1,2-a]pyridine-5-carboxamide]", "values": [
      {"measurement": "IC50", "setting": "[4]", "value": "< 2", "unit": "µM"}
    ]},
    {"smiles": "CC1(C)[C@H]2CC[C@@H](CNC(=O)c3cccc4nc(C(=O)N5CCCC5)cn34)[C@@H]1C2", "note": "[Compound 454, N-{[(1S,2R,5S)-6,6-dimethylbicyclo[3.1.1]hept-2-yl]methyl}-2-(pyrrolidin-1-ylcarbonyl) imidazo[1,2-a]pyridine-5-carboxamide]", "values": [
      {"measurement": "IC50", "setting": "[5]", "value": "< 2", "unit": "µM"}
    ]},
    {"smiles": "Nc1nnnn1Cc1cn2c(C(=O)NCC34CC5CC(CC(C5)C3)C4)cccc2n1", "note": "[Compound 207, N-(adamantan-1-ylmethyl)-2-[(5-amino-1H-tetrazol-1-yl)methyl]imidazo[1,2-a]pyridine-5-carboxamide]", "values": [
      {"measurement": "IC50", "setting": "[1]", "value": "< 2", "unit": "µM"}
    ]},
    {"smiles": "C[C@@H]1CNCCN1C(=O)c1cn2c(C(=O)NCC34CC5CC(CC(C5)C3)C4)cccc2n1", "note": "[Compound 600, N-(adamantan-1-ylmethyl)-2-{[(2R)-2-methylpiperazin-1-yl]carbonyl}imidazo[1,2-a]pyridine-5-carboxamide]", "values": [
      {"measurement": "IC50", "setting": "[5]", "value": "< 2", "unit": "µM"}
    ]},
    {"smiles": "CC(C)(C)[C@@H](CO)NC(=O)c1cn2c(C(=O)NC[C@@H]3CC[C@H]4C[C@@H]3C4(C)C)cccc2n1", "note": "[Compound 522, 5-N-{[(1S,2R,5S)-6,6-dimethylbicyclo[3.1.1]hept-2-yl]methyl}-2-N-[(1S)-1-(hydroxymethyl)-2,2-dimethylpropyl] imidazo[1,2-a] pyridine-2,5-dicarboxamide]", "values": [
      {"measurement": "IC50", "setting": "[5]", "value": "< 2", "unit": "µM"}
    ]},
    {"smiles": "CC(C)CC(CNC(=O)c1cccc2nc(C(F)(F)F)cn12)c1ccc(C(F)(F)F)cc1", "note": "(stereo not shown) [Compound 1025, N-{4-methyl-2-[4-(trifluoromethyl)phenyl]pentyl}-2-(trifluoromethyl) imidazo [1,2-a]pyridine-5-carboxamide]", "values": [
      {"measurement": "IC50", "setting": "[3]", "value": "< 2", "unit": "µM"}
    ]},
    {"smiles": "CC1CCN(C(=O)c2cn3c(C(=O)NC[C@@H]4CC[C@H]5C[C@@H]4C5(C)C)cccc3n2)CC1", "note": "[Compound 463, N-{[(1S,2R,5S)-6,6-dimethylbicyclo[3.1.1]hept-2-yl]methyl}-2-[(4-methylpiperidin-1-yl)carbonyl]imidazo[l, 2-a]pyridine-5-carboxamide]", "values": [
      {"measurement": "IC50", "setting": "[5]", "value": "< 2", "unit": "µM"}
    ]},
    {"smiles": "C[C@H](O)CNC(=O)c1cn2c(C(=O)NCC34CC5CC(CC(C5)C3)C4)cccc2n1", "note": "[Compound 82, 5-N-(adamantan-1-ylmethyl)--[(2S)-2-hydroxy-propyl]imidazo[1,2-a]pyridine-2,5-dicarboxamide]", "values": [
      {"measurement": "IC50", "setting": "[1]", "value": "< 2", "unit": "µM"}
    ]},
    {"smiles": "CCOC(=O)CN(C)C(=O)c1cn2c(C(=O)NC[C@@H]3CC[C@H]4C[C@@H]3C4(C)C)cccc2n1", "note": "[Compound 482, ethyl N-{[5-({[(1S,2R,5S)-6,6-dimethylbicyclo[3.1.1]hept-2-yl]methyl}carbamoyl)imidazo[1,2-a]pyridin-2-yl]carbonyl}-N-methylglycinate]", "values": [
      {"measurement": "IC50", "setting": "[5]", "value": "< 2", "unit": "µM"}
    ]},
    {"smiles": "Cc1cnc(N(C)Cc2cn3c(C(=O)NCC45CC6CC(CC(C6)C4)C5)cccc3n2)nc1N", "note": "[Compound 772, N-(adamantan-1-ylmethyl)-2-{[(4-amino-5-methylpyrimidin-2-yl)(methyl)amino]methyl}imidazo [1,2-a]pyridine-5-carboxamide]", "values": [
      {"measurement": "IC50", "setting": "[2]", "value": "< 2", "unit": "µM"}
    ]},
    {"smiles": "O=C(NCC12CC3CC(CC(C3)C1)C2)c1cccc2nc(CN3C[C@H](O)CC3=O)cn12", "note": "[Compound 538, N-(adamantan-1-ylmethyl)-2-{[(4R)-4-hydroxy-2-oxopyrrolidin-1-yl]methyl}imidazo[1,2-a]pyridine-5-carboxamide]", "values": [
      {"measurement": "IC50", "setting": "[5]", "value": "< 2", "unit": "µM"}
    ]},
    {"smiles": "O=C(O)c1cnn(Cc2cn3c(C(=O)NCC45CC6CC(CC(C6)C4)C5)cccc3n2)c1", "note": "[Compound 203, 1-({5-[(adamantan-1-ylmethyl)carbamoyl]imi-dazo[1,2-a]pyridin-2-yl}methyl)-1H-pyrazole-4-carboxylic acid]", "values": [
      {"measurement": "IC50", "value": "< 2", "unit": "µM"}
    ]},
    {"smiles": "CC(=O)c1cn2c(C(=O)NCC34CC5CC(CC(C5)C3)C4)cccc2n1", "note": "[Compound 196, 2-acetyl-N-(adamantan-1-ylmethyl)imidazo[1,2-a]pyridine-5-carboxamide]", "values": [
      {"measurement": "IC50", "setting": "[1]", "value": "< 2", "unit": "µM"}
    ]},
    {"smiles": "COCCN(C(=O)c1cn2c(C(=O)NCC34CC5CC(CC(C5)C3)C4)cccc2n1)C1CCNCC1(C)C", "note": "(stereo not shown) [Compound 623, 5-N-(adamantan-1-ylmethyl)-2-N-(3,3-dimethylpiperidin-4-yl)-2-N-(2-methoxyethyl)imidazo [1,2-a]pyridine-2,5-dicarboxamide]", "values": [
      {"measurement": "IC50", "setting": "[2]", "value": "< 2", "unit": "µM"}
    ]},
    {"smiles": "O=C(Cc1cn2c(C(=O)NCC34CC5CC(CC(C5)C3)C4)cccc2n1)N[C@@H]1CCNC1", "note": "[Compound 837, N-(adamantan-1-ylmethyl)-2-{2-oxo-2-[(3R)-pyrrolidin-3-ylamino]ethyl} imidazo [1,2-a]pyridine-5-carboxamide]", "values": [
      {"measurement": "IC50", "setting": "[4]", "value": "< 2", "unit": "µM"}
    ]},
    {"smiles": "CCC(C)NC(=O)Cc1cn2c(C(=O)NCC3(c4ccc(Cl)cc4)CCCCC3)cccc2n1", "note": "(stereo not shown) [Compound 870, 2-[2-(sec-butylamino)-2-oxoethyl]-N-{[1-(4-chlorophenyl)cyclohexyl]methyl}imidazo [1,2-a]pyridine-5-carboxamide]", "values": [
      {"measurement": "IC50", "setting": "[4]", "value": "< 2", "unit": "µM"}
    ]},
    {"smiles": "CC1(C)C2CC[C@H](CNC(=O)c3cccc4nc(CC(=O)O)cn34)C1C2", "note": "(stereo in doubt) [Compound 682, (5-{[(6,6-dimethylbicyclo[3.1.1]hept-2-yl)methyl]carbamoyl}imidazo[1,2-a]pyridin-2-yl)acetic acid]", "values": [
      {"measurement": "IC50", "setting": "[2]", "value": "< 2", "unit": "µM"}
    ]},
    {"smiles": "O=C(NCC12CC3CC(CC(C3)C1)C2)c1cccc2nc(C(=O)N3CCCNCC3)cn12", "note": "[Compound 608, N-(adamantan-1-ylmethyl)-2-(1,4-diazepan-1-ylcarbonyl)imidazo[1,2-a]pyridine-5-carboxamide]", "values": [
      {"measurement": "IC50", "setting": "[5]", "value": "< 2", "unit": "µM"}
    ]},
    {"smiles": "CC(C)CC(CNC(=O)c1cccc2nc(CN3CCOCC3)cn12)c1ccc(Cl)cc1", "note": "(stereo not shown) [Compound 1038, N-[2-(4-chlorophenyl)-4-methylpentyl]-2-(morpholin-4-ylmethyl) imidazo[1,2-a]pyridine-5-carboxamide]", "values": [
      {"measurement": "IC50", "setting": "[3]", "value": "< 2", "unit": "µM"}
    ]},
    {"smiles": "COCC1CCN(C(=O)Cc2cn3c(C(=O)NCC45CC6CC(CC(C6)C4)C5)cccc3n2)CC1", "note": "[Compound 34, N-(adamantan-1-ylmethyl)-2-{2-[4-(methoxy-methyl)piperidin-1-yl]-2-oxoethyl}imidazo[1,2-a]pyridine-5-carboxamide]", "values": [
      {"measurement": "IC50", "setting": "[1]", "value": "< 2", "unit": "µM"}
    ]},
    {"smiles": "O=C(NCC12CC3CC(CC(C3)C1)C2)c1cccc2nc(CNCc3ccccn3)cn12", "note": "[Compound 68, N-(adamantan-1-ylmethyl)-2-{[(pyridin-2-ylmethyl)amino]meth-yl}imidazo[1,2-a]pyridine-5-carboxamide]", "values": [
      {"measurement": "IC50", "setting": "[1]", "value": "< 2", "unit": "µM"}
    ]},
    {"smiles": "N[C@@H]1CCN(CCc2cn3c(C(=O)NCC45CC6CC(CC(C6)C4)C5)cccc3n2)C1", "note": "[Compound 115, 2-[2-((R)-3-amino-pyrrolidin-1-yl)-ethyl]-imidazo[1,2-a]pyridine-5-carboxylic acid (adamantan-1-ylmethyl)-amide]", "values": [
      {"measurement": "IC50", "setting": "[1]", "value": "< 2", "unit": "µM"}
    ]}
  ]
}
